In patent publication US20070166547A1, “Use of a layer consisting of hydrophobic linear, or two-dimensional polycyclic aromatics as a barrier layer or an encapsulation and electric components constructed with a layer of this type and comprising organic polymers” (priority 2003, published 2007):
Where two headings read alike, the source gives them in different places.

Legend:
[1] = rat, in vivo
Protocol: (§1) The experiments were conducted on inbred rats. The experimental animals were selected in groups by a method of random sampling taking into account the body mass as a determining index; 24 males or 24 females for one preparation from compounds 2, 15, 23, 34, 37 investigated in one dose.
(§2) Two doses of preparations used in the experiments: 50 mg/kg and 500 mg/kg. Before the administration, the suppositories were softened by heating in a glass water bath at a temperature of 38-39° C., the soft mass was collected in tuberculin syringe in a volume of 1 ml, a needle with oliva was attached to the syringe, and the preparatory mass was introduced into the rectum of the animal for a depth of 1.5-2.0 cm. The animals of the control group were administered with sterile medical liquid paraffin in a volume corresponding to the volume of the investigated suppository. A complete course of administration of drugs to the animals was two months. A complex of laboratory diagnostic investigations was carried out one month after the beginning of the administration of the preparation to the animal—in a middle of the course (8 animals), two months after ending the course (8 animals) and three months after ending the recovery period of one month (8 animals). The mass of the body of the rats in the first month of administration of the preparation was determined weekly, and then once in two weeks. On the basis of the dynamics of an index of the mass of the animal body, the volume of preparation being administered was corrected taking into account the test dose.

[2] = Chronic toxicity, rectal suppositories: indexes of peripheral blood; conditions: male rats; for Basophiles / Juveniles: 1 month/2 months (one value given)
Protocol: as §1, §2

[3] = Chronic toxicity, rectal suppositories: biochemical indexes of blood serum; conditions: male rats, 1 month
Protocol: as §1, §2

[4] = Chronic toxicity, rectal suppositories: indexes of urine; conditions: rats, 1 month after the administration
Protocol: as §1, §2

[5] = suppositories 50 mg/kg, 1 month
[6] = suppositories 50 mg/kg, 2 months
[7] = suppositories 500 mg/kg, 1 month
[8] = suppositories 500 mg/kg, 2 months

For `Nc1cccc2c(=O)[nH][nH]c(=O)c12.[Na]` [Compound 15, sodium salt of 5-amino-benzo[d]-3H-pyridazine-1,4-dione], the “Bilirubin (index of urine)” value ([1]; 50 mg/kg) was <5 Mkmol/l, the “Glucose (index of urine)” value ([1]; 50 mg/kg) was <6 mmol/L and the “Ketone bodies (index of urine)” value ([1]; 50 mg/kg) was <1 mmol/L. The “Potassium (index of urine)” value ([1]; 50 mg/kg) was 5.28 ± 1.5 g/L, the “Protein (index of urine)” value ([1]; 50 mg/kg) was 0.71 ± 0.274 g/L and the “Sodium (index of urine)” value ([1]; 50 mg/kg) was 1.2 ± 0.4 g/L. The “Urea (index of urine)” value ([1]; 50 mg/kg) was 413 ± 128 mmol/L, the “Urobilinogen (index of urine)” value ([1]; 50 mg/kg) was <17 Mkmol/l and the “pH (index of urine)” value ([1]; 50 mg/kg) was 6.3 ± 0.4. The “Bilirubin (index of urine)” value ([1]; 500 mg/kg) was <5 Mkmol/l, the “Glucose (index of urine)” value ([1]; 500 mg/kg) was <6 mmol/L and the “Ketone bodies (index of urine)” value ([1]; 500 mg/kg) was <1 mmol/L. For the same compound, the “Potassium (index of urine)” value ([1]; 500 mg/kg) was 6.13 ± 1.6 g/L, the “Protein (index of urine)” value ([1]; 500 mg/kg) was 0.87 ± 0.24 g/L and the “Sodium (index of urine)” value ([1]; 500 mg/kg) was 0.64 ± 0.4 g/L. The “Urea (index of urine)” value ([1]; 500 mg/kg) was 485 ± 131 mmol/L, the “Urobilinogen (index of urine)” value ([1]; 500 mg/kg) was <17 Mkmol/l and the “pH (index of urine)” value ([1]; 500 mg/kg) was 6.2 ± 0.3.
For `O=c1[nH][nH]c(=O)c2c(Br)ncnc12.[K]` [Compound 37, potassium salt of 4-bromine-pyrimido[4,5-D]-6H-pyridazine-5,8-dione], the “Bilirubin (index of urine)” value ([1]; 50 mg/kg) was <5 Mkmol/l, the “Glucose (index of urine)” value ([1]; 50 mg/kg) was <5 mmol/L and the “Ketone bodies (index of urine)” value ([1]; 50 mg/kg) was <1 mmol/L. The “Potassium (index of urine)” value ([1]; 50 mg/kg) was 6.12 ± 1.4 g/L, the “Protein (index of urine)” value ([1]; 50 mg/kg) was 0.70 ± 0.19 g/L and the “Sodium (index of urine)” value ([1]; 50 mg/kg) was 1.4 ± 0.2 g/L. The “Urea (index of urine)” value ([1]; 50 mg/kg) was 427 ± 137 mmol/L, the “Urobilinogen (index of urine)” value ([1]; 50 mg/kg) was <15 Mkmol/l and the “pH (index of urine)” value ([1]; 50 mg/kg) was 6.4 ± 0.4. The “Bilirubin (index of urine)” value ([1]; 500 mg/kg) was <5 Mkmol/l, the “Glucose (index of urine)” value ([1]; 500 mg/kg) was <5 mmol/L and the “Ketone bodies (index of urine)” value ([1]; 500 mg/kg) was <1 mmol/L. The “Potassium (index of urine)” value ([1]; 500 mg/kg) was 6.44 ± 1.3 g/L, the “Protein (index of urine)” value ([1]; 500 mg/kg) was 0.72 ± 0.14 g/L and the “Sodium (index of urine)” value ([1]; 500 mg/kg) was 0.88 ± 0.4 g/L. For the same compound, the “Urea (index of urine)” value ([1]; 500 mg/kg) was 489 ± 152 mmol/L, the “Urobilinogen (index of urine)” value ([1]; 500 mg/kg) was <15 Mkmol/l and the “pH (index of urine)” value ([1]; 500 mg/kg) was 6.2 ± 0.3.
For `O=c1[nH]n([C@@H]2O[C@H](CO)[C@@H](O)[C@H]2O)c(=O)c2nc(O)cnc12.[Na].[Na]` [Compound 23, disodium salt of 2-hydroxy-7-(β-D-ribofuranosile)pyrazine[2,3-Cl]-6H-pyridazine-5,8-dione], the “Average volume of erythrocytes” value [2, 5] was 82.7 ± 1.6 Mkm^3, the “Coagulation, time” value [2, 5] was 150 ± 15 s and the Eosinophiles [2, 5] was 3.6 ± 0.5%. The Erythrocytes [2, 5] was 5.7 ± 0.1 mln/mm^3, the Haematocrite [2, 5] was 47.7 ± 1.2% and the Hemoglobin [2, 5] was 10.7 ± 0.1 mmol/L. It also gave a Leukocyte [2, 5] of 15.5 ± 1.1 thousand/mm^3, an REE [2, 5] of 1.7 ± 0.8 mm/h and a Reticulocytes [2, 5] of 2.7 ± 0.3%. It also gave a Stab neutrophil [2, 5] of 1.1 ± 0.5%, a Thrombocytes [2, 5] of 659 ± 18 and a Basophiles ([2]; suppositories 50 mg/kg) of 0%. For the same compound, the Juveniles ([2]; suppositories 50 mg/kg) was 0%, the “Average volume of erythrocytes” value [2, 6] was 77.5 ± 1.7 Mkm^3 and the “Coagulation, time” value [2, 6] was 313 ± 17 s. The Eosinophiles [2, 6] was 4.0 ± 0.7%, the Erythrocytes [2, 6] was 6.0 ± 0.2 mln/mm^3 and the Haematocrite [2, 6] was 46.5 ± 1.3%. It also gave a Hemoglobin [2, 6] of 11.0 ± 0.1 mmol/L, a Leukocyte [2, 6] of 17.6 ± 1.2 thousand/mm^3 and an REE [2, 6] of 1.5 ± 0.1 mm/h. The Reticulocytes [2, 6] was 2.8 ± 0.1%, the Stab neutrophil [2, 6] was 1.6 ± 0.2% and the Thrombocytes [2, 6] was 586 ± 28. For the same compound, the “Average volume of erythrocytes” value [2, 7] was 83.5 ± 1.7 Mkm^3, the “Coagulation, time” value [2, 7] was 156 ± 11 s and the Eosinophiles [2, 7] was 3.3 ± 0.7%. For the same compound, the Erythrocytes [2, 7] was 5.7 ± 0.2 mln/mm^3, the Haematocrite [2, 7] was 47.9 ± 1.1% and the Hemoglobin [2, 7] was 10.7 ± 0.2 mmol/L. It also gave a Leukocyte [2, 7] of 16.4 ± 1.1 thousand/mm^3, an REE [2, 7] of 2.0 ± 0.3 mm/h and a Reticulocytes [2, 7] of 3.1 ± 0.1%. It also gave a Stab neutrophil [2, 7] of 1.0 ± 0.3%, a Thrombocytes [2, 7] of 678 ± 18 and a Basophiles ([2]; suppositories 500 mg/kg) of 0%. For the same compound, the Juveniles ([2]; suppositories 500 mg/kg) was 0%, the “Average volume of erythrocytes” value [2, 8] was 82.1 ± 1.4 Mkm^3 and the “Coagulation, time” value [2, 8] was 3171 ± 12 s. The Eosinophiles [2, 8] was 3.8 ± 1.3%, the Erythrocytes [2, 8] was 6.4 ± 0.2 mln/mm^3 and the Haematocrite [2, 8] was 49.4 ± 1.9%. For the same compound, the Hemoglobin [2, 8] was 12.3 ± 0.3 mmol/L, the Leukocyte [2, 8] was 20.1 ± 1.7 thousand/mm^3 and the REE [2, 8] was 1.7 ± 0.3 mm/h. For the same compound, the Reticulocytes [2, 8] was 3.4 ± 0.1%, the Stab neutrophil [2, 8] was 1.6 ± 0.2% and the Thrombocytes [2, 8] was 628 ± 23.
`Nc1ccnc2c(=O)n([C@@H]3O[C@H](CO)[C@@H](O)[C@H]3O)[nH]c(=O)c12` [Compound 2, 4-amino-7-(β-D-ribofuranosile)pyrido[2,3-d]-6H-pyridazine-5,8-dione] showed an ALT ([3]; suppositories 50 mg/kg) of 10.84 ± 2.02 unit/l, an AST ([3]; suppositories 50 mg/kg) of 20.41 ± 3.06 unit/1 and an Alkalinous phosphatase ([3]; suppositories 50 mg/kg) of 42.12 ± 4.23 unit/1. The Bilirubin ([3]; suppositories 50 mg/kg) was 44.38 ± 4.12, the Cholesterol ([3]; suppositories 50 mg/kg) was 2.77 ± 0.71 mmol/L and the Creatinine ([3]; suppositories 50 mg/kg) was 47.38 ± 3.26 mkmol/l. The Glucose ([3]; suppositories 50 mg/kg) was 9.85 ± 0.37 mM, the Total protein ([3]; suppositories 50 mg/kg) was 87.34 ± 5.56 g/L and the Urea ([3]; suppositories 50 mg/kg) was 11.02 ± 0.73. The ALT ([3]; suppositories 500 mg/kg) was 11.23 ± 1.70 unit/l, the AST ([3]; suppositories 500 mg/kg) was 20.13 ± 2.95 unit/1 and the Alkalinous phosphatase ([3]; suppositories 500 mg/kg) was 43.4 ± 2.12 unit/1. For the same compound, the Bilirubin ([3]; suppositories 500 mg/kg) was 42.56 ± 7.56, the Cholesterol ([3]; suppositories 500 mg/kg) was 2.96 ± 0.52 mmol/L and the Creatinine ([3]; suppositories 500 mg/kg) was 49.87 ± 8.12 mkmol/l. It also gave a Glucose ([3]; suppositories 500 mg/kg) of 10.2 ± 0.74 mM, a Total protein ([3]; suppositories 500 mg/kg) of 70.84 ± 7.47 g/L and a Urea ([3]; suppositories 500 mg/kg) of 11.30 ± 0.80. The “Bilirubin (index of urine)” value ([4]; dose 50 mg/kg) was <5 Mkmol/l, the “Glucose (index of urine)” value ([4]; dose 50 mg/kg) was <5 mmol/L and the “Ketone bodies (index of urine)” value ([4]; dose 50 mg/kg) was <1 mmol/L. The “Potassium (index of urine)” value ([4]; dose 50 mg/kg) was 5.78 ± 1.7 g/L, the “Protein (index of urine)” value ([4]; dose 50 mg/kg) was 0.69 ± 0.33 g/L and the “Sodium (index of urine)” value ([4]; dose 50 mg/kg) was 1.7 ± 0.3 g/L. For the same compound, the “Urea (index of urine)” value ([4]; dose 50 mg/kg) was 457 ± 144 mmol/L, the “Urobilinogen (index of urine)” value ([4]; dose 50 mg/kg) was <16 Mkmol/l and the “pH (index of urine)” value ([4]; dose 50 mg/kg) was 6.1 ± 0.3. The “Bilirubin (index of urine)” value ([4]; dose 500 mg/kg) was <5 Mkmol/l, the “Glucose (index of urine)” value ([4]; dose 500 mg/kg) was <5 mmol/L and the “Ketone bodies (index of urine)” value ([4]; dose 500 mg/kg) was <1 mmol/L. The “Potassium (index of urine)” value ([4]; dose 500 mg/kg) was 6.24 ± 1.8 g/L, the “Protein (index of urine)” value ([4]; dose 500 mg/kg) was 0.76 ± 0.31 g/L and the “Sodium (index of urine)” value ([4]; dose 500 mg/kg) was 1.27 ± 0.3 g/L. For the same compound, the “Urea (index of urine)” value ([4]; dose 500 mg/kg) was 492 ± 187 mmol/L, the “Urobilinogen (index of urine)” value ([4]; dose 500 mg/kg) was <16 Mkmol/l and the “pH (index of urine)” value ([4]; dose 500 mg/kg) was 6.2 ± 0.2. The “Average volume of erythrocytes” value [2, 5] was 83.4 ± 1.4 Mkm^3, the “Coagulation, time” value [2, 5] was 145 ± 16 s and the Eosinophiles [2, 5] was 3.4 ± 0.6%. The Erythrocytes [2, 5] was 5.60 ± 2 mln/mm^3, the Haematocrite [2, 5] was 47.8 ± 1.3% and the Hemoglobin [2, 5] was 10.5 ± 0.1 mmol/L. The Leukocyte [2, 5] was 16.0 ± 1.4 thousand/mm^3, the REE [2, 5] was 1.9 ± 0.3 mm/h and the Reticulocytes [2, 5] was 2.8 ± 0.2/2.8 ± 0.2%. It also gave a Stab neutrophil [2, 5] of 0.8 ± 0.3%, a Thrombocytes [2, 5] of 659 ± 26 and a Basophiles ([2]; suppositories 50 mg/kg) of 0%. The Juveniles ([2]; suppositories 50 mg/kg) was 0%, the “Average volume of erythrocytes” value [2, 6] was 77.9 ± 2.1 Mkm^3 and the “Coagulation, time” value [2, 6] was 322 ± 18 s. It also gave an Eosinophiles [2, 6] of 4.2 ± 0.8%, an Erythrocytes [2, 6] of 6.1 ± 0.1 mln/mm^3 and a Haematocrite [2, 6] of 47.9 ± 1.5%. For the same compound, the Hemoglobin [2, 6] was 11.1 ± 0.1 mmol/L, the Leukocyte [2, 6] was 19.3 ± 1.6 thousand/mm^3 and the REE [2, 6] was 1.7 ± 0.1 mm/h. For the same compound, the Reticulocytes [2, 6] was 2.8 ± 0.2/2.8 ± 0.2%, the Stab neutrophil [2, 6] was 1.7 ± 0.3% and the Thrombocytes [2, 6] was 566 ± 20. The “Average volume of erythrocytes” value [2, 7] was 85.2 ± 1.2 Mkm^3, the “Coagulation, time” value [2, 7] was 149 ± 11 s and the Eosinophiles [2, 7] was 3.2 ± 0.9%. It also gave an Erythrocytes [2, 7] of 5.6 ± 0.1 mln/mm^3, a Haematocrite [2, 7] of 47.5 ± 1.6% and a Hemoglobin [2, 7] of 10.6 ± 0.1 mmol/L. It also gave a Leukocyte [2, 7] of 15.6 ± 0.8 thousand/mm^3, an REE [2, 7] of 2.1 ± 0.3 mm/h and a Reticulocytes [2, 7] of 2.9 ± 0.3%. It also gave a Stab neutrophil [2, 7] of 0.9 ± 0.2%, a Thrombocytes [2, 7] of 681 ± 26 and a Basophiles ([2]; suppositories 500 mg/kg) of 0%. The Juveniles ([2]; suppositories 500 mg/kg) was 0%, the “Average volume of erythrocytes” value [2, 8] was 72.0 ± 2.5 Mkm^3 and the “Coagulation, time” value [2, 8] was 305 ± 13 s. For the same compound, the Eosinophiles [2, 8] was 4.8 ± 1.6%, the Erythrocytes [2, 8] was 6.5 ± 0.1 mln/mm^3 and the Haematocrite [2, 8] was 50.3 ± 2.0%. The Hemoglobin [2, 8] was 12.3 ± 0.3 mmol/L, the Leukocyte [2, 8] was 18.6 ± 1.9 thousand/mm^3 and the REE [2, 8] was 1.9 ± 0.1 mm/h. It also gave a Reticulocytes [2, 8] of 3.5 ± 0.2%, a Stab neutrophil [2, 8] of 1.1 ± 0.3% and a Thrombocytes [2, 8] of 583 ± 25.
